Source: article PMC4167909 (Analytical biochemistry, 2014)

How the values were obtained:
OXA-24/40 [1] = target: T1, OXA-24/40 (Acinetobacter baumannii, UniProt Q8RLA6); experiment: competitive inhibition of ampicillin hydrolysis; type: biochemical
OXA-24/40 [2] = target: OXA-24/40 (Acinetobacter baumannii, UniProt Q8RLA6, V130D); experiment: SDS-PAGE fluorescent acyl-enzyme detection, single-turnover conditions; type: binding
OXA-24/40 [3] = target: T1, OXA-24/40; experiment: kinetic competition with ampicillin as reporter substrate; type: biochemical

`C[C@@H](O)[C@H]1C(=O)N2C(C(=O)O)=C(S[C@H]3C[C@@H](C(=O)N(C)C)N(C(=S)Nc4ccc5c(c4)C(=O)OC54c5ccc(O)cc5Oc5cc(O)ccc54)C3)[C@H](C)[C@H]12` [FM, fluorescein-meropenem] was tested, and the Ki (OXA-24/40 [1]) was 43 nM and the “SDS-PAGE fluorescent acyl-enzyme detection, single-turnover conditions” value (OXA-24/40 [2]) was “All Val130 substitutions showed some degree of fluorescence labeling, but the Val130Asp, Val130Thr and Val130Asn substitutions most severely reduced deacylation”.

`C[C@@H](O)[C@H]1C(=O)N2C(C(=O)O)=C(S[C@@H]3CN[C@H](C(=O)N(C)C)C3)[C@H](C)[C@H]12` [meropenem] gave a Ki (OXA-24/40 [3]) of 18 nM.
